Measured values from patent US20120010131A1, “NOVEL CYCLOSPORIN ANALOGUES” (Scynexis, Inc., priority 2009, published 2012).
pEC50: −log10 of the molar value.

Legend:
[1] = tested on: mitochondrial permeability transition (MPT); assay: Mitochondrial permeability transition: Ca2+-induced swelling of rat liver mitochondria; assay type: biochemical; settings: swelling induced by 150 micromolar Ca2+, compound added 5 minutes before, read-out: EC50 (inhibition of mitochondrial swelling)
Description: Mitochondrial permeability transition (MPT) was determined by measuring swelling of the mitochondria induced by Ca^2+. The procedure was adapted from the method described by Blattner et al, Analytical Biochem, Volume 295, page 220 (2001). Mitochondria were prepared from rat livers, which had been perfused with phosphate-buffered saline (PBS) to remove blood, using standard methods that utilized gentle homogenization in sucrose based buffer and then differential centrifugation to first remove cellular debris and then to pellet the mitochondria. Swelling was induced by 150 micromolar Ca^2+ (added from a concentrated solution of calcium chloride) and was monitored by measuring the scattering at 535-540 nm. Representative compounds were added 5 minutes before swelling was induced. EC50 were determined by comparing swelling with and without the compounds of the invention.

[2] = molecular target: cyclophilin A (Homo sapiens, UniProt P62937); assay: Cyclophilin binding competitive ELISA, cyclophilin A; settings: human recombinant cyclophilin
Description: (§1) The cyclophilin inhibition binding of compounds of the invention was determined using a competitive ELISA adapted from the methods described by Quesniaux et al. (Eur. J Immunol. 1987, Vol. 17, pages 1359-1365). Activated ester of succinyl spacers bound to D-Lys^8-cylosporine A (D-Lys^8-Cs) was coupled to bovine serum albumin (BSA) through D-lysyl residue in position 8. BSA was dissolved in 0.1 M borate buffer, pH 9.0 (4 mg in 1.4 ml). A hundredfold molar excess of D-Lys^8-Cs dissolved in dimethyl formamide (0.6 ml) was added dropwise to the BSA under vigorous stirring. […] After acetone precipitation of an aliquot of the conjugated protein, no covalently bound D-Lys^8-Cs remained in the acetone solution and the extent of cyclosporine covalent binding was calculated.
(§2) Microtiter Plates were coated with D-Lys^8-Cs-BSA conjugate ([…] in PBS for 24 hours at 4° C.). […] Cyclophilin was detected with anti-cyclophilin rabbit antiserum diluted in 1% BSA containing PBS and incubated overnight at 4° C. […] Bound rabbit antibodies were then detected by goat anti-rabbit IgG conjugated to alkaline phosphatase diluted in 1% BSA-PBS and allowed to incubate for 2 hours at 37° C. […] After incubation with 4-nitrophenyl phosphate (1 g/1 in diethanolamine buffer, pH 9.8) for 1 to 2 hours at 37° C., the enzymatic reaction was measured spectrophotometrically at 405 nm using a spectrophotometer.

[3] = tested on: Jurkat cells; assay: Cytotoxicity in parallel Alamar Blue plates (Jurkat cells); assay type: cell-based
Description: (§3) Compounds of the invention were tested for their T Cell stimulation (IL-2) in Jurkat cells with anti-CD3 and anti-CD28 co-stimulation. […] Cyclosporine A (control) was also run at a 0.5-Log 9-point titration, starting at 500 ng/mL. All compounds to be tested were dissolved in dimethyl sulfoxide. Cytotoxicity was evaluated with parallel Alamar Blue plates. Jurkat cells were seeded at 2×10^5 cells per well in 190 μL growth media in a 96-well plate, Cells were cultured in RPMI 1640 medium, 10% fetal bovine serum, and L-Glutamine with incubation at 37° C. with 5% carbon dioxide. After 1 hour of incubation the cells were stimulated with immobilized anti-CD3 (0.4m/well), anti-CD28 soluble (2 μg/mL). After 6 hours the sample supernatants were harvested and stored at −80° C. 50 μL samples of supernatant were tested for IL-2 using a Luminex® 1-plex assay.

[4] = molecular target: cyclophilin D (Homo sapiens, UniProt P30405); assay: Cyclophilin binding competitive ELISA, cyclophilin D; settings: human recombinant cyclophilin
Description: as §1, §2

[5] = tested on: HCV RNA replicon ET (luc ubi neo/ET); settings: read-out: EC50 (effective concentration that reduced viral replication by 50%); HCV replicon ET line, LUC reporter, 72 hours
From the text: Compounds were examined in the human hepatoma cell line ET (lub ubi neo/ET), a HCV RNA replicon containing a stable luciferase (LUC) reporter. The HCV RNA replicon ET contains the 5′ end of HCV (with the HCV Internal Ribosome Entry Site (IRES) and the first few amino acids of the HCV core protein) which drives the production of a firefly luciferase (LUC), ubiquitin, and neomycin phosphotransferase (NeoR) fusion protein. Ubiquitin cleavage releases the LUC and NeoR proteins. The EMCV IRES element controls the translation of the HCV […] proteins NS3-NS5. […] At the 3′ end of the replicon is the authentic 3′ NTR of HCV. The activity of the LUC reporter is directly proportional to HCV replication levels and positive-control antiviral compounds produce a reproducible antiviral response using the LUC endpoint.
The activity of the LUC reporter is directly proportional to HCV RNA levels in the human cell line.

[6] = molecular target: cyclophilin B (Homo sapiens, UniProt P23284); assay: Cyclophilin binding competitive ELISA, cyclophilin B; settings: human recombinant cyclophilin
Description: as §1, §2

[7] = tested on: IL-2 in Jurkat cells; assay: T cell stimulation (IL-2) in Jurkat cells with anti-CD3 and anti-CD28 co-stimulation; assay type: cell-based; settings: 6 hours, Luminex 1-plex
Description: as §3

Sequence of cyclophilin B (P23284 34-216): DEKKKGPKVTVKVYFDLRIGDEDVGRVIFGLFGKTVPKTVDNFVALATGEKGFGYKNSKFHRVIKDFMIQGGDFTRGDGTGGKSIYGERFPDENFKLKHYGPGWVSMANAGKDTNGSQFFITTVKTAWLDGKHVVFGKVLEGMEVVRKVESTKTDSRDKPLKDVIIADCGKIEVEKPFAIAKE
Sequence of cyclophilin A (P62937 whole entry): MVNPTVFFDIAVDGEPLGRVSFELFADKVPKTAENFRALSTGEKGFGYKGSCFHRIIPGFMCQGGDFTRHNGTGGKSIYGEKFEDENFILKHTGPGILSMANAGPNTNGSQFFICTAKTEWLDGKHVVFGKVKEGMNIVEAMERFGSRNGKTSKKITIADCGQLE
Sequence of cyclophilin D (P30405 30-207): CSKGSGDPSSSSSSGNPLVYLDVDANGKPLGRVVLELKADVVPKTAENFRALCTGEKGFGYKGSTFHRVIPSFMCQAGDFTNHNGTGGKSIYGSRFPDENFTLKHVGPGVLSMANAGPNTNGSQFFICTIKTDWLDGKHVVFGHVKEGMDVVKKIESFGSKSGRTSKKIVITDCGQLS

`C/C=C/C[C@@H](C)[C@@H](O)[C@H]1C(=O)N[C@@H](CC)C(=O)N(C)CC(=O)N(C)[C@@H](CC(C)(C)OCc2ccccc2)C(=O)N[C@@H](C(C)C)C(=O)N(C)[C@@H](CC(C)C)C(=O)N[C@@H](C)C(=O)N[C@H](C)C(=O)N(C)[C@@H](CC(C)C)C(=O)N(C)[C@@H](CC(C)C)C(=O)N(C)[C@@H](C(C)C)C(=O)N1C` [Compound A, [4′-Benzyloxy-N-methylleucine]^4cyclosporine A] was tested, and the pEC50 [1] was greater than 5.00, the “cyclophilin A binding value” [2] was no more than 98 ng/mL and the Cytotoxicity [3] was “absence of cytotoxicity”. The “cyclophilin D binding value” [4] was 124 ng/mL, the pEC50 [5] was 6.39 and the “cyclophilin B binding value” [6] was 102 ng/mL. For the same compound, the “IL-2 activity EC50” value [7] was 0.043 µg/mL.
